Reference: patent US20250115569A1, “SULFONAMIDE COMPOUNDS FOR THE TREATMENT OF NEUROLOGICAL CONDITIONS” (LARIO THERAPEUTICS LIMITED, priority 2021, published 2025)

Key:
Cav2.3 = Cav2.3 (Homo sapiens, UniProt Q15878); test: Human Cav2.3 channel calcium-influx assay; type: cell-based; conditions: Fluo8 fluorescence, HEK-293 T-Rex/Kir2.1/Cav2.3e cells, without pluronic acid, read-out: Cav2.3 (pIC50) (converted)
In short: (§1)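 HEK-293 T-Rex/Kir2.1 cells with doxycycline (0.2 μg/mL)-inducible Cav2.3e plus Cavβ4-α2δ1, loaded with Fluo8 NW in 0 mM K+ Tyrode's. Compounds (8 points, top 30 μM, half-log, 0.3% final DMSO, n=4) preincubated 3 min at RT, then depolarized with 20 mM KCl/2 mM CaCl2 (final); fluorescence read 130 s.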

Human Cav2.3 channel = Human Cav2.3 channel calcium-influx assay; type: cell-based; conditions: Fluo8 fluorescence, HEK-293 T-Rex/Kir2.1/Cav2.3e cells, without pluronic acid
In short: as §1

Chain of Cav2.3 (Q15878 whole entry, looked up): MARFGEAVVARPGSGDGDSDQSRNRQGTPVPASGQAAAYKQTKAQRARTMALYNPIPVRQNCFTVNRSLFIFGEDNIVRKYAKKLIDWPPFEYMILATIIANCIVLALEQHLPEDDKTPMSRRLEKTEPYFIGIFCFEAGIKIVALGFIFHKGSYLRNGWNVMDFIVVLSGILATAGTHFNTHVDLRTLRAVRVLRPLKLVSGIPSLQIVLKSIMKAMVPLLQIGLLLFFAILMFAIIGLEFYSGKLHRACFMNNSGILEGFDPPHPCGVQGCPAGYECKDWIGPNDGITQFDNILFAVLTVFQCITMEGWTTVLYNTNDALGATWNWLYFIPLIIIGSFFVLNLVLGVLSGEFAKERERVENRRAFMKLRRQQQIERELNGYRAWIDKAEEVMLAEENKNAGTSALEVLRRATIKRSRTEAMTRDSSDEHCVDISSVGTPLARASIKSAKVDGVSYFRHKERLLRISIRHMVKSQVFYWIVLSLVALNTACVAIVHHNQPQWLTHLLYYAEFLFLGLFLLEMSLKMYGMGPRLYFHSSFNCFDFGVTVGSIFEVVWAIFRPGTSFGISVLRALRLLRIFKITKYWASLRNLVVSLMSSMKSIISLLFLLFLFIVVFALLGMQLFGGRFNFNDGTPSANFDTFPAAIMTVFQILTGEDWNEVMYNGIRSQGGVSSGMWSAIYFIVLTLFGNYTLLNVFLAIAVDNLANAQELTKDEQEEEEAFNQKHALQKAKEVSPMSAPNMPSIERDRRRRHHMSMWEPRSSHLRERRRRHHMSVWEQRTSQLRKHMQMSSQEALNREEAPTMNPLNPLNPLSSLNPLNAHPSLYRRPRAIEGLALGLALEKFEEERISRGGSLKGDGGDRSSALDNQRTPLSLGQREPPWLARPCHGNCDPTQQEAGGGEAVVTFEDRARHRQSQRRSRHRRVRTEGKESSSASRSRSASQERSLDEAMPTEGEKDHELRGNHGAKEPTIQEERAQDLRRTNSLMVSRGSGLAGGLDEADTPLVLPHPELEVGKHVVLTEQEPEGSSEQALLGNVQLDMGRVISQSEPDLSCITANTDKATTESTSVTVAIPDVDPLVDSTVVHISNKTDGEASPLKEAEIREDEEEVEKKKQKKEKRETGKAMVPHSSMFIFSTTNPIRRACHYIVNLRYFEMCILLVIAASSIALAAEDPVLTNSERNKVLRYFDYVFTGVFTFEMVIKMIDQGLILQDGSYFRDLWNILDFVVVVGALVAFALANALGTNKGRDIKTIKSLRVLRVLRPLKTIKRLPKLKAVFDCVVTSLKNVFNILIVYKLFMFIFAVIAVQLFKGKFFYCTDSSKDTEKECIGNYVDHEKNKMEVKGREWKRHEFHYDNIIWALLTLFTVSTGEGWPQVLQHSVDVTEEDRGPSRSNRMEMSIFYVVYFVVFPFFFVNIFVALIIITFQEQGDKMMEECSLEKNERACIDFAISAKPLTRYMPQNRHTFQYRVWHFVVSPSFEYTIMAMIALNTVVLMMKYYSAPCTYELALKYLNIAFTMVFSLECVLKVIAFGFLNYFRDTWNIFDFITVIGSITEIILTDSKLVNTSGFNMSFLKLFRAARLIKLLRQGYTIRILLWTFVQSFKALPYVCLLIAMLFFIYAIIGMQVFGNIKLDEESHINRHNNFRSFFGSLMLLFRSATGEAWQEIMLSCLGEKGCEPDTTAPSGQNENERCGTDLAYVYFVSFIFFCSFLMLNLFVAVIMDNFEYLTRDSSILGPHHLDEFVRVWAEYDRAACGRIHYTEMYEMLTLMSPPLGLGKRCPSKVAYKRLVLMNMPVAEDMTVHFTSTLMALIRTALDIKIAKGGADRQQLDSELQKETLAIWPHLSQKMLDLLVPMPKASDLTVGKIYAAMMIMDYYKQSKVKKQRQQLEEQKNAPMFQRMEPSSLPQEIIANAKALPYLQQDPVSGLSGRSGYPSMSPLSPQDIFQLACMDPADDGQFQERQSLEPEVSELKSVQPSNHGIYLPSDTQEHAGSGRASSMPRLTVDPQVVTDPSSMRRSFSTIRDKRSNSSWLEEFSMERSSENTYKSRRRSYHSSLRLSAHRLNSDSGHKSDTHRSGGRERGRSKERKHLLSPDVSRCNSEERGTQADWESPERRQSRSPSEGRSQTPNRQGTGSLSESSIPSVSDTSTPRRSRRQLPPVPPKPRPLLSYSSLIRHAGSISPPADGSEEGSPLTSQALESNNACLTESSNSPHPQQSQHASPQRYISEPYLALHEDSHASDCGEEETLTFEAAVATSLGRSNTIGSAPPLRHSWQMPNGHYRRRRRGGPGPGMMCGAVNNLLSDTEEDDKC

IC50 (Cav2.3)	Cav2.3 (pIC50) (Human Cav2.3 channel)	SMILES
5620 nM		CCN([C@@H](c1ccc(OC(F)(F)F)cc1)C(F)(F)F)S(=O)(=O)c1cncc(C#N)c1 [Example 118, (S)-5-Cyano-N-ethyl-N-(2,2,2-trifluoro-1-(4-(trifluoromethoxy)phenyl)ethyl)pyridine-3-sulfonamide]
234 nM		COc1ccc([C@@H](N(C)S(=O)(=O)c2cncc(F)c2)C(F)(F)F)cc1 [Example 221, (R)-5-fluoro-N-methyl-N-(2,2,2-trifluoro-1-(4-methoxyphenyl)ethyl)pyridine-3-sulfonamide]
4270 nM		CCN([C@@H](c1ccc(OC)cc1)C(F)(F)F)S(=O)(=O)c1cncc(F)c1 [Example 256, (S)—N-ethyl-5-fluoro-N-(2,2,2-trifluoro-1-(4-methoxyphenyl)ethyl)pyridine-3-sulfonamide]
107 nM		CN(C(c1ccc(C(F)(F)F)cc1)C(F)(F)F)S(=O)(=O)c1cncc(C#N)c1 (stereo not drawn) [Example 67, 5-Cyano-N-methyl-N-(2,2,2-trifluoro-1-(4-(trifluoromethyl)phenyl)ethyl)pyridine-3-sulfonamide]
35.5 nM		[2H][C@@](c1ccc(Cl)cc1)(N(C)S(=O)(=O)c1cncc(C#N)c1)C(F)(F)F [Example 242, N-(1-(4-chlorophenyl)-2,2,2-trifluoroethyl-1-d)-5-cyano-N-methylpyridine-3-sulfonamide]
468 nM		CCN([C@H](c1ccc(C(F)(F)F)c(C)c1)C(F)(F)F)S(=O)(=O)c1cncc(C#N)c1 [Example 268, (R)-5-cyano-N-ethyl-N-(2,2,2-trifluoro-1-(3-methyl-4-(trifluoromethyl)phenyl)ethyl)pyridine-3-sulfonamide]

Continued, compound first:

SMILES	IC50 (Cav2.3)	Cav2.3 (pIC50) (Human Cav2.3 channel)
CCN([C@H](c1ccc(F)cc1)C(F)(F)F)S(=O)(=O)c1cnc2ccnn2c1 [Example 165, (R)—N-ethyl-N-(2,2,2-trifluoro-1-(4-fluorophenyl)ethyl)pyrazolo[1,5-a]pyrimidine-6-sulfonamide]	123 nM	
CCN(C(c1ccc(F)cc1)C(F)(F)F)S(=O)(=O)c1cnc(C#N)s1 (stereo not drawn) [Example 82, 2-Cyano-N-ethyl-N-(2,2,2-trifluoro-1-(4-fluorophenyl)ethyl)thiazole-5-sulfonamide]	912 nM	
CCN(C(c1ccc(F)cc1)C(F)(F)F)S(=O)(=O)c1ccc(C#N)s1 (stereo not drawn) [Example 21, 5-cyano-N-ethyl-N-(2,2,2-trifluoro-1-(4-fluorophenyl)ethyl)thiophene-2-sulfonamide]	437 nM	
CCN([C@H](c1ccc(OC)cc1)C(F)(F)F)S(=O)(=O)C1CCOCC1 [Example 127, (R)—N-ethyl-N-(2,2,2-trifluoro-1-(4-methoxyphenyl)ethyl)tetrahydro-2H-pyran-4-sulfonamide]	309 nM	
COc1cc(S(=O)(=O)N(C)[C@H](c2ccc(Cl)cc2)C(F)(F)F)c(OC)nn1 [Example 228, (R)—N-(1-(4-chlorophenyl)-2,2,2-trifluoroethyl)-3,6-dimethoxy-N-methylpyridazine-4-sulfonamide]	891 nM	
CCN(C(c1ccc(F)cc1)C(F)(F)F)S(=O)(=O)c1cncc(C2COC2)c1 (stereo not drawn) [Example 99, N-ethyl-5-(oxetan-3-yl)-N-(2,2,2-trifluoro-1-(4-fluorophenyl)ethyl)pyridine-3-sulfonamide]	275 nM	
CCN(C(c1ccc(F)cc1)C(F)(F)F)S(=O)(=O)c1nccs1 (stereo not drawn) [Example 81, N-ethyl-N-(2,2,2-trifluoro-1-(4-fluorophenyl)ethyl)thiazole-2-sulfonamide]	955 nM	
CCN(C(c1ccc(F)cc1)C(F)(F)F)S(=O)(=O)c1ccc2c(c1)COCC2 (stereo not drawn) [Example 29, N-ethyl-N-(2,2,2-trifluoro-1-(4-fluorophenyl)ethyl)isochromane-7-sulfonamide]		6.18
Cc1ncc(S(=O)(=O)N(C)[C@H](c2ccc(F)cc2)C(F)(F)F)cn1 [Example 78, (R)—N,2-dimethyl-N-(2,2,2-trifluoro-1-(4-fluorophenyl)ethyl)pyrimidine-5-sulfonamide]		5.69
